Values after ≈ are worked out from the molar mass of the structure shown. Blank lines part the entries; values can stand above or below the molecule they belong to.
Key:
[1] = biological target: T1, Alpha-2B adrenergic receptor (Homo sapiens, UniProt P18089); test: Antagonist activity at human recombinant adrenergic alpha2B receptor expressed in CHO cell treated with compound for 5 mins followed by norepinephrine measured for 50 secs by microtitre plate method; format: functional, cell-based
T1 sequence (P18089 whole entry): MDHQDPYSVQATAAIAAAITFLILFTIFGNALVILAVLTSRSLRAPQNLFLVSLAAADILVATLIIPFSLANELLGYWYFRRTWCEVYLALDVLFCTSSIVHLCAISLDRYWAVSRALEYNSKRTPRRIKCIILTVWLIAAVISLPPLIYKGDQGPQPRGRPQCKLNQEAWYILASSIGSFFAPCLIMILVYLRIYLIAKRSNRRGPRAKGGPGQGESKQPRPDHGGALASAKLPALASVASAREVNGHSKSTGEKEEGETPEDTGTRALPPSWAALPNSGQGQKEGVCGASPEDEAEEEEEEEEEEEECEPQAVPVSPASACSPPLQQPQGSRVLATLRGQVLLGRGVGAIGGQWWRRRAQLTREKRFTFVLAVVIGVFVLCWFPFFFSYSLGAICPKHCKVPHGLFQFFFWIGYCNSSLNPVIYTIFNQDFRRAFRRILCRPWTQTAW

[2] = Volume of distribution at steady state in Wistar rat plasma 0.3 mg/kg, iv measured upto 24 hrs by LC-MS/MS analysis; format: ADME, organism-based; settings: in vivo
[3] = biological target: T2, Cytochrome P450 2C8 (Homo sapiens, UniProt P10632); test: Inhibition of human liver microsome CYP2C8 at 0.6 to 20 uM measured by LC/MS/MS analysis; format: ADME; settings: microsomes, dose 0.6-20 µM
T2 sequence (P10632 whole entry): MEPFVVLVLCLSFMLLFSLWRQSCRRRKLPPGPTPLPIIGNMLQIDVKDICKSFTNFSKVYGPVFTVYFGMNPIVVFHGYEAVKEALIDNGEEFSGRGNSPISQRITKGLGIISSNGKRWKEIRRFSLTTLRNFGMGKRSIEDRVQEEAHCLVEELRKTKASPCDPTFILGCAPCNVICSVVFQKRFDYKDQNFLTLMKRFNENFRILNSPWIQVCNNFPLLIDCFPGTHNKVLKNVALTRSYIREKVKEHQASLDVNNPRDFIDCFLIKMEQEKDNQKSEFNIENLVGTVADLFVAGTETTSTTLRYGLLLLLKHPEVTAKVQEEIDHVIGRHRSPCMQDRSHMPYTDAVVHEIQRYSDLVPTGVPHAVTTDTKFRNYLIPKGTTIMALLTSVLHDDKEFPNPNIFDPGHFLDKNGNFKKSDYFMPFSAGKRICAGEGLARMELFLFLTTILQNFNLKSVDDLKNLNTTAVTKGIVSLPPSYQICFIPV

[4] = Volume of distribution at steady state in dog plasma 0.3 mg/kg, iv measured 0.033 to 24 hrs by LC-MS/MS analysis; format: ADME, organism-based, Canis lupus familiaris; settings: time 0.033-24 hrs, read-out: Vdss
[5] = Stability of the compound assessed as no adsorption to the sterile filter at pH 7.4 in 0.9% NaCl by measuring feasibility of sterilization using HPLC analysis; format: physicochemical; settings: buffer
[6] = Stability of the compound assessed as no adsorption to the sterile filter at pH 7.4 in 0.9% NaCl by measuring feasibility of sterilization at 121 degC for 15 mins using HPLC analysis; format: physicochemical; settings: buffer
[7] = biological target: T3, Cytochrome P450 1A2 (Homo sapiens, UniProt P05177); test: Induction of human hepatocyte CYP1A2 treated upto 211 uM for 48 hrs by measuring mRNA expression using delta delta Ct method; format: ADME, cell-based; settings: hepatocytes
T3 sequence (P05177 whole entry): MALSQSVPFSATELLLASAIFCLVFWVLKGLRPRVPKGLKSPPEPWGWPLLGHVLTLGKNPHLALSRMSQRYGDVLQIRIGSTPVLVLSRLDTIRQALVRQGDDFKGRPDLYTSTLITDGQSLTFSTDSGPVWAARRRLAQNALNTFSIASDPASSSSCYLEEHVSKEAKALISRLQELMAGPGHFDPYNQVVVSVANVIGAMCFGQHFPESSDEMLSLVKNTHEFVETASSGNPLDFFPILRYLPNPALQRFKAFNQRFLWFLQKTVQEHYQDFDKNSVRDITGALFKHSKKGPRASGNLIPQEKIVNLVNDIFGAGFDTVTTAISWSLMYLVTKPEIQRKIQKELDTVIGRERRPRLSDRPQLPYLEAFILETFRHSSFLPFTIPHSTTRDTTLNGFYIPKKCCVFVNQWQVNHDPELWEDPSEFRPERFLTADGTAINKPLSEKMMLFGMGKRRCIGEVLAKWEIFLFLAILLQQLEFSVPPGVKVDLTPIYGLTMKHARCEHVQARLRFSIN

[8] = biological target: Sodium channel protein type 5 subunit alpha (Homo sapiens, UniProt Q14524); test: Inhibition of human Nav1.5 channel; format: toxicity
[9] = Plasma protein binding in monkey plasma assessed as unbound fraction by equilibrium dialysis base LC-MS/MS analysis; format: ADME, cell-free, Macaca mulatta; settings: rhesus monkey
[10] = biological target: Cytochrome P450 2D6 (Homo sapiens, UniProt P10635); test: Inhibition of human liver microsome CYP2D6 at 0.6 to 20 uM measured by LC/MS/MS analysis; format: ADME; settings: microsomes, dose 0.6-20 µM
Cytochrome P450 2D6, sequence (P10635 whole entry): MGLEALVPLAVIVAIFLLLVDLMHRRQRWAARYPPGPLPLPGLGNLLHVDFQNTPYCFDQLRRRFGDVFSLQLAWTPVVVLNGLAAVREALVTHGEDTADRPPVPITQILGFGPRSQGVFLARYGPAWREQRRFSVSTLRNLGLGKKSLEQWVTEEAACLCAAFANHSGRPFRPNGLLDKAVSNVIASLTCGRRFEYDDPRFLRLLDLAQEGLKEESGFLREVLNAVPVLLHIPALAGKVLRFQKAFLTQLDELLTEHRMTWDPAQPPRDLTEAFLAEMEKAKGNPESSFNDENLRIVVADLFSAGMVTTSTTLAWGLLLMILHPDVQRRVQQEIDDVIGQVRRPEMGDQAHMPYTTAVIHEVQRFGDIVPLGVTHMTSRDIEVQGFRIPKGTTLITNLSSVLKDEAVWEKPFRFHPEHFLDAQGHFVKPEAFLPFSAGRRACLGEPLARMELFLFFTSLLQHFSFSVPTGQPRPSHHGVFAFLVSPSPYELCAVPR

[11] = Plasma protein binding in rat plasma assessed as unbound fraction by equilibrium dialysis base LC-MS/MS analysis; format: ADME, cell-free
[12] = Mean residence time in Wistar rat plasma 0.3 mg/kg, iv measured upto 24 hrs by LC-MS/MS analysis; format: ADME, organism-based; settings: in vivo
[13] = Chemical stability of the compound in 0.9% NaCl at pH 7.4 measured upto 1 week at 90 degC; format: physicochemical; settings: buffer, pH 7.4, 168 h; time < 1 weeks
[14] = biological target: Voltage-gated inwardly rectifying potassium channel KCNH2 (Homo sapiens, UniProt Q12809); test: Inhibition of hERG by electrode whole cell voltage clamp method; format: toxicity
Voltage-gated inwardly rectifying potassium channel KCNH2, sequence (Q12809 whole entry): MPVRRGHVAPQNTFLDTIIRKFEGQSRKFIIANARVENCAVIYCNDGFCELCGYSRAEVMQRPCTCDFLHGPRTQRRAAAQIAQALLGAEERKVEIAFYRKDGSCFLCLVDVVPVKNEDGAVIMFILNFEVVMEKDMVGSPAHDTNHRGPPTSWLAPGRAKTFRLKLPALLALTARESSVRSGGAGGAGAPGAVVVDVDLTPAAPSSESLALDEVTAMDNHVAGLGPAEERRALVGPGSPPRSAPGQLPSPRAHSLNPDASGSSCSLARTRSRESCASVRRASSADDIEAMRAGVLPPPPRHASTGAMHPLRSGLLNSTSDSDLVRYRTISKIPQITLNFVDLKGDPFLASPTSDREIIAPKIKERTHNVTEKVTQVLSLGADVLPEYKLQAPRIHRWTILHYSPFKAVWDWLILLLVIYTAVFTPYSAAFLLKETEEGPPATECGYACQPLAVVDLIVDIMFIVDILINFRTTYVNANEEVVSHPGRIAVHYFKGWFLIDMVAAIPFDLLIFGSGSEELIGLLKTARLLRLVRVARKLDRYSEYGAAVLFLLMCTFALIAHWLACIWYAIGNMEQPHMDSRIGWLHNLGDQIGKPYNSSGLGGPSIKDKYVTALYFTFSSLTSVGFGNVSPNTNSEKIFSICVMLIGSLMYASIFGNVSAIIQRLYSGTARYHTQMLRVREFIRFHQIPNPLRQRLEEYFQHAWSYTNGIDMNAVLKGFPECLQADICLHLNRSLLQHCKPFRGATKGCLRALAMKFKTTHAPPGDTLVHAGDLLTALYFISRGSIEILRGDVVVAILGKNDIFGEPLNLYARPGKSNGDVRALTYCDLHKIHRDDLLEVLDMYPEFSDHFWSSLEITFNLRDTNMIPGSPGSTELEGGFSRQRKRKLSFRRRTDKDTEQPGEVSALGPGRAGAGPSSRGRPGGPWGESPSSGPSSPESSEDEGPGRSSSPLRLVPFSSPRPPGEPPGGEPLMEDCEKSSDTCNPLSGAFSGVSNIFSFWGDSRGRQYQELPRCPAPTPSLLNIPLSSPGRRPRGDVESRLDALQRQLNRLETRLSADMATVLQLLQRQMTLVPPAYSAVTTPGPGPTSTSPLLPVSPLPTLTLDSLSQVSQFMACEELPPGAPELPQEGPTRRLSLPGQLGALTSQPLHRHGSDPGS

[15] = Chemical stability of the compound at pH 1 measured upto 7 days; format: physicochemical; settings: buffer, pH 1, 168 h; time < 7 day
[16] = biological target: T4, Cytochrome P450 3A4 (Homo sapiens, UniProt P08684); test: Induction of human hepatocyte CYP3A4 treated upto 211 uM for 48 hrs by measuring mRNA expression using delta delta Ct method; format: ADME, cell-based; settings: hepatocytes
T4 sequence (P08684 whole entry): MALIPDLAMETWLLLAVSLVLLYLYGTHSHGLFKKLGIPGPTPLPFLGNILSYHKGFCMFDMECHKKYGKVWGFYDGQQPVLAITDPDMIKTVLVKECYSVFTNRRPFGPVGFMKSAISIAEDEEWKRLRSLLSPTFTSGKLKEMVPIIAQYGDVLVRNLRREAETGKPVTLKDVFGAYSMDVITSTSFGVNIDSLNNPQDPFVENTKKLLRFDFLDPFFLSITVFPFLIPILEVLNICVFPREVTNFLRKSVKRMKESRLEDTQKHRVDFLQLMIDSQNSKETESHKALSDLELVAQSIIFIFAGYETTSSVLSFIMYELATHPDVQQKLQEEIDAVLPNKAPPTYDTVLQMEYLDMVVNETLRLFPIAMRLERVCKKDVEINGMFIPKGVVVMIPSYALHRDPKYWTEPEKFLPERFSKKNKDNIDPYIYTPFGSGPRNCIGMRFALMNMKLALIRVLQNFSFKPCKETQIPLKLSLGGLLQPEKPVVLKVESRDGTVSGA

[17] = biological target: T4, Cytochrome P450 3A4; test: Inhibition of human liver microsome CYP3A4 at 0.6 to 20 uM measured by LC/MS/MS analysis; format: ADME; settings: microsomes, dose 0.6-20 µM
[18] = biological target: Voltage-dependent L-type calcium channel subunit alpha-1C (Homo sapiens, UniProt Q13936); test: Inhibition of human Cav1.2 channel; format: toxicity
Voltage-dependent L-type calcium channel subunit alpha-1C, sequence (Q13936 whole entry): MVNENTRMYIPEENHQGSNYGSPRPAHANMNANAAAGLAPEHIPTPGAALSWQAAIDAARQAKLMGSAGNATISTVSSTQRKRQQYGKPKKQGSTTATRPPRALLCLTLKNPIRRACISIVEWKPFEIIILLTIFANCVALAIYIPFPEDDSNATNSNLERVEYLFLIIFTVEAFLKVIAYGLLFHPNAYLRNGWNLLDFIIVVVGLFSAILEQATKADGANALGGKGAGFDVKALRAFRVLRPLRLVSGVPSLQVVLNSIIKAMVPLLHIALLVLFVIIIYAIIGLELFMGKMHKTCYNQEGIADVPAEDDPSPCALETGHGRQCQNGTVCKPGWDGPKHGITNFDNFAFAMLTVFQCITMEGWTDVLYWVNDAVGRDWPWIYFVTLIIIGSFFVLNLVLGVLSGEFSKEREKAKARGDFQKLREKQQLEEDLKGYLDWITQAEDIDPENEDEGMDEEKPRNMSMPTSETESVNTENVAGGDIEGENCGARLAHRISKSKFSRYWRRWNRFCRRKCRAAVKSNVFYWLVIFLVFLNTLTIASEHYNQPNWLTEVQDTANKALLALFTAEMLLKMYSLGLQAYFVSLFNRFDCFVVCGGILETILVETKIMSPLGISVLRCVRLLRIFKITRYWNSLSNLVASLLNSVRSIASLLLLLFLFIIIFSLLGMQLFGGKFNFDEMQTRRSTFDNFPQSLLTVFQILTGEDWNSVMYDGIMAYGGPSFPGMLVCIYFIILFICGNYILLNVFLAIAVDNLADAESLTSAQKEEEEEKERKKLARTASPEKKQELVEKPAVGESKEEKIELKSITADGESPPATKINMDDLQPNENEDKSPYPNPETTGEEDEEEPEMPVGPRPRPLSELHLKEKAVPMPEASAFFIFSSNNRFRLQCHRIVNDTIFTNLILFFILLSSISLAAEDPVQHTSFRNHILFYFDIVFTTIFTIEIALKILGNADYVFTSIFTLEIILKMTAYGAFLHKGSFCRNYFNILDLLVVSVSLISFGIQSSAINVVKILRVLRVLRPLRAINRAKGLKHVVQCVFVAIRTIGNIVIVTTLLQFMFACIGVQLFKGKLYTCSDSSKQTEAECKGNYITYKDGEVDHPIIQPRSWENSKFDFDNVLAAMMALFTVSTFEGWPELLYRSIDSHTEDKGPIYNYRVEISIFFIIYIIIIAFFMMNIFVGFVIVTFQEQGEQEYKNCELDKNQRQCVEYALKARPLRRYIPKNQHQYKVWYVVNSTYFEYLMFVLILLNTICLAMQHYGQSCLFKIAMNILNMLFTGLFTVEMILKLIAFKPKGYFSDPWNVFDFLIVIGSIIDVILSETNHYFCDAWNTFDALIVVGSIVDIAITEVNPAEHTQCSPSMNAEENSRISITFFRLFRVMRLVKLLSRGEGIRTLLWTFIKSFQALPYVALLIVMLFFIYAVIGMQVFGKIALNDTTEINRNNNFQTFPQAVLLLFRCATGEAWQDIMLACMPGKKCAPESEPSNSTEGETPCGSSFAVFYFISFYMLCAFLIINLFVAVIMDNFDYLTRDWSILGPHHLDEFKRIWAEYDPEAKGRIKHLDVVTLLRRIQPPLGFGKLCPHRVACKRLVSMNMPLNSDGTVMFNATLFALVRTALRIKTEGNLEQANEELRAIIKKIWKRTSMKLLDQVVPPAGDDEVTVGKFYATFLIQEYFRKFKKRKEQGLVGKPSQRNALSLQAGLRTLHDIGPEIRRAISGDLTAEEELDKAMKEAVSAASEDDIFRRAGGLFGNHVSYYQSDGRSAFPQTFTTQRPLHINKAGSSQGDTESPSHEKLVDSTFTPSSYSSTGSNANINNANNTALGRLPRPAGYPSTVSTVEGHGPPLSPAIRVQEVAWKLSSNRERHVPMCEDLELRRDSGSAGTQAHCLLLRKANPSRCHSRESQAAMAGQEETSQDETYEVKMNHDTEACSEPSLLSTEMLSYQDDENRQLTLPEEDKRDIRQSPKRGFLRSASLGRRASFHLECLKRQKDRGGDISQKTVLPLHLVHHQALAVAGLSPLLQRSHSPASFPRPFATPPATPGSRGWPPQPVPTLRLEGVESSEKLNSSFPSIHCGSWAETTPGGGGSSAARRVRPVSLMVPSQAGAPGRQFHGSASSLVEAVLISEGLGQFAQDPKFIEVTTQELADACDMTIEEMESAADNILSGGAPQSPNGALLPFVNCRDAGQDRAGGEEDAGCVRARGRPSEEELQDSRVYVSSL

[19] = Clearance in Wistar rat plasma 0.3 mg/kg, iv measured upto 24 hrs by LC-MS/MS analysis; format: ADME, organism-based; settings: in vivo
[20] = Plasma protein binding in human plasma assessed as unbound fraction by equilibrium dialysis base LC-MS/MS analysis; format: ADME, cell-free
[21] = biological target: T3, Cytochrome P450 1A2; test: Inhibition of human liver microsome CYP1A2 at 0.6 to 20 uM measured by LC/MS/MS analysis; format: ADME; settings: microsomes, dose 0.6-20 µM
[22] = Clearance in dog plasma 0.3 mg/kg, iv measured 0.033 to 24 hrs by LC-MS/MS analysis; format: ADME, organism-based, Canis lupus familiaris; settings: time 0.033-24 hrs
[23] = Permeability across apical to basolateral side human Caco-2 cells incubated for 2 hrs measured by LC/MS/MS analysis; format: ADME, cell-based; settings: caco-2, 2 h
[24] = biological target: Cytochrome P450 2C9 (Homo sapiens, UniProt P11712); test: Inhibition of human liver microsome CYP2C9 at 0.6 to 20 uM measured by LC/MS/MS analysis; format: ADME; settings: microsomes, dose 0.6-20 µM
Cytochrome P450 2C9, sequence (P11712 whole entry): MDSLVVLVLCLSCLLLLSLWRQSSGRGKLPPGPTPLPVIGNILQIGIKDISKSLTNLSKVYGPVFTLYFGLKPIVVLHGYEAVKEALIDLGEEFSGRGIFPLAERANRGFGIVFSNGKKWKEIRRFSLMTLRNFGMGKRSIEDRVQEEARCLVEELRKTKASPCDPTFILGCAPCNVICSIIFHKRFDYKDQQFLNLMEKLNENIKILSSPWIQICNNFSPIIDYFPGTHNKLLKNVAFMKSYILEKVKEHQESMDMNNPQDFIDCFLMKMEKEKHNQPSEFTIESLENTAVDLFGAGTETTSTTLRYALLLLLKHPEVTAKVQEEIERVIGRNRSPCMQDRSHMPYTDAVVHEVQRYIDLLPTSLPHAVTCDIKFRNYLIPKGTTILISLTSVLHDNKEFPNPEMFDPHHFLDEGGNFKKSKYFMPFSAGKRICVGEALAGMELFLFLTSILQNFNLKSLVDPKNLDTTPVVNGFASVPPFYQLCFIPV

[25] = Chemical stability of the compound at pH 10 measured upto 7 days; format: physicochemical; settings: buffer, pH 10, 168 h; time < 7 day
[26] = Plasma protein binding in dog plasma assessed as unbound fraction by equilibrium dialysis base LC-MS/MS analysis; format: ADME, cell-free, Canis lupus familiaris
[27] = Chemical stability of the compound in 0.9% NaCl at pH 7.4 measured for 13 week at 40 degC; format: physicochemical; settings: buffer, pH 7.4, 2184 h; time 13 weeks
[28] = Mutagenecity in Salmonella typhimurium in presence of s9 fraction by Ames test; format: toxicity, subcellular; settings: salmonella enterica subsp. enterica serovar typhimurium
[29] = Chemical stability of the compound at pH 7 measured upto 7 days; format: physicochemical; settings: buffer, pH 7, 168 h; time < 7 day
[30] = Solubility of the compound in pH 7 shaken for 24 hrs; format: physicochemical; settings: buffer
[31] = Metabolic stability in rat liver microsomes at pH 7.4 in presence of NADPH/UDPGA by LC/MS/MS analysis; format: ADME, Microsome
[32] = Metabolic stability in cryopreserved dog liver hepatocytes at 10 uM incubated upto 4 hrs by LC/MS/MS analysis; format: ADME, cell-based, Canis lupus familiaris, Hepatocyte
[33] = Chemical stability of the compound assessed as decomposition at pH 1 measured upto 24 hrs; format: physicochemical; settings: buffer, pH 1, 24 h
[34] = Metabolic stability in dog liver microsomes at pH 7.4 in presence of NADPH/UDPGA by LC/MS/MS analysis; format: ADME, Canis lupus familiaris, Microsome
[35] = Metabolic stability in cryopreserved rat liver hepatocytes at 10 uM incubated upto 4 hrs by LC/MS/MS analysis; format: ADME, cell-based, Hepatocyte
[36] = Chemical stability of the compound assessed as decomposition at pH 7 measured upto 24 hrs; format: physicochemical; settings: buffer, pH 7, 24 h
[37] = Metabolic stability in cryopreserved human liver hepatocytes at 10 uM incubated upto 4 hrs by LC/MS/MS analysis; format: ADME, cell-based, Hepatocyte
[38] = Chemical stability of the compound assessed as decomposition at pH 10 measured upto 24 hrs; format: physicochemical; settings: buffer, pH 10, 24 h

IC50 [1]: 7.05 µM
SMILES: CNc1cc[n+](CC(Nc2ccc3c(c2)ncn3-c2c(C)noc2C)C(F)(F)F)cc1 (racemic)

Vdss [2]: 0.5 L/kg
inhibition (INH) [3]: Not Active
Vd [4]: 0.6 L/kg
Stability [5]: Stable
Stability [6]: Stable
Activity [7]: Not Active
Fu [9]: 92%
inhibition (INH) [10]: Not Active
Fu [11]: 79%
MRT [12]: 6 min
Stability [13]: Stable
Stability [15]: Stable
Activity [16]: Not Active
inhibition (INH) [17]: Not Active
CL [19]: 71.7 mL/min/kg
Fu [20]: 85%
inhibition (INH) [21]: Not Active
clearance [22]: 26.7 mL/min/kg
permeability [23]: 0.3 ×10⁻⁶ cm/s
inhibition (INH) [24]: Not Active
Stability [25]: Stable
Fu [26]: 82%
Stability [27]: Stable
Stability [29]: Stable
SMILES: CNc1cc[n+](CCNC(=O)c2ccn3c(-c4c(C)noc4C)cnc3c2)cc1.[Cl-]
inhibition (INH) [8]: Not Active
inhibition (INH) [14]: Not Active
inhibition (INH) [18]: Not Active
Activity [28]: Non-Toxic

SMILES: Cc1noc(C)c1-n1cnc2cc(N)ccc21
Activity [28]: Toxic

solubility thermodynamic at 24 h [30]: 300 µg/mL (≈ 1070 µM)
SMILES: COc1ccccc1-n1cnc2cc(NC(C)=O)ccc21

SMILES: CNc1cc[n+](CC(=O)Nc2cnc3c(c2)ncn3-c2ccccc2OC)cc1.O=C[O-]
Activity [28]: Toxic

SMILES: CNc1cc[n+](CCNC(=O)c2ccc3c(c2)ncn3-c2c(C)noc2C)cc1.O=C[O-]
Activity [28]: Non-Toxic

SMILES: CNc1ccncc1
Activity [28]: Non-Toxic

SMILES: CNc1cc[n+](CC(=O)Nc2cccc(C)c2)cc1.O=C[O-]
Activity [28]: Non-Toxic

SMILES: Cc1noc(C)c1N
Activity [28]: Non-Toxic

solubility thermodynamic at 24 h [30]: 20 µg/mL (≈ 53.7 µM)
SMILES: COc1ccccc1-n1cnc2cc(NC(=O)CCc3ccccn3)ccc21

SMILES: CNc1cc[n+](CC(=O)Nc2ccc3c(c2)ncn3-c2c(C)noc2C)cc1.O=C[O-]
Stability [31]: Stable
Stability [32]: Stable
Stability [33]: Stable
Stability [34]: Stable
Stability [35]: Stable
Stability [36]: Stable
Stability [37]: Stable
Stability [38]: Stable
permeability [23]: 0.36 ×10⁻⁶ cm/s
Activity [28]: Toxic
